Data as given in ChEMBL document CHEMBL1157646, “Melanogenesis inhibitors from the desert plant Anastatica hierochuntica in B16 melanoma cells” (Bioorg Med Chem, 2010).
The source made the active and inactive calls. The calls are words filed in the database; no cut-off is given here.

Experiments:
[1] = Toxicity in mouse B16-4A5 cells assessed as inhibition of cell proliferation at 1 uM in presence of 1 mM theophylline after 72 hrs by WST8 dye reduction assay; format: cell-based
[2] = Toxicity in mouse B16-4A5 cells assessed as inhibition of cell proliferation at 3 uM in presence of 1 mM theophylline after 72 hrs by WST8 dye reduction assay; format: cell-based
[3] = Toxicity in mouse B16-4A5 cells assessed as inhibition of cell proliferation at 10 uM in presence of 1 mM theophylline after 72 hrs by WST8 dye reduction assay; format: cell-based
[4] = Toxicity in mouse B16-4A5 cells assessed as inhibition of cell proliferation at 30 uM in presence of 1 mM theophylline after 72 hrs by WST8 dye reduction assay; format: cell-based
[5] = Toxicity in mouse B16-4A5 cells assessed as inhibition of cell proliferation in presence of 1 mM theophylline after 72 hrs by WST8 dye reduction assay; format: cell-based
[6] = target: T1, Tyrosinase (Agaricus bisporus) (UniProt O42713); experiment: Inhibition of mushroom tyrosinase at 1 uM
T1 sequence (whole entry): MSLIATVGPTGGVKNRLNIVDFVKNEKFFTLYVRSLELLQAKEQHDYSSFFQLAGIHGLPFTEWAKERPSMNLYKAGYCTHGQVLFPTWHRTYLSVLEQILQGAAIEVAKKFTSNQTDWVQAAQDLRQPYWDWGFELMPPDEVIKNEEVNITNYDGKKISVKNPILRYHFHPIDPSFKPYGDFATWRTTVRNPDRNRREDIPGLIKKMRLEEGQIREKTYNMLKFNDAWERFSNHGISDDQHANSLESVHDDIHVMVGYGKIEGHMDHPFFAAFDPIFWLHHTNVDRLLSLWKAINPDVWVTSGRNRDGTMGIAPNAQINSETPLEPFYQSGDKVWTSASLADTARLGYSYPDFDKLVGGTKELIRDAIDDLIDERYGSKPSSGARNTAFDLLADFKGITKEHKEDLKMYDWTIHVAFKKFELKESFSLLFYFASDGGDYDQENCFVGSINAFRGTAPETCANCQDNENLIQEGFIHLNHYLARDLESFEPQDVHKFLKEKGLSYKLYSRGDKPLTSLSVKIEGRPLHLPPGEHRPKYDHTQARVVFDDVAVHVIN

[7] = target: T1, Tyrosinase (Agaricus bisporus); experiment: Inhibition of mushroom tyrosinase at 3 uM
[8] = target: T1, Tyrosinase (Agaricus bisporus); experiment: Inhibition of mushroom tyrosinase assessed as inhibition of melanin production from dopachrome by autoxidation at 100 uM
cells [9] = details: Mus musculus, B16-4A5, 72 h, read-out: INH
Description: Inhibition of theophylline-stimulated melanogenesis in mouse B16-4A5 cells at 30 uM after 72 hrs

cells [10] = details: Mus musculus, B16-4A5, 72 h, read-out: INH; remark: listed apart in the source
Description: Inhibition of theophylline-stimulated melanogenesis in mouse B16-4A5 cells at 10 uM after 72 hrs

cells [11] = details: Mus musculus, B16-4A5, 72 h, read-out: INH; remark: listed apart in the source
Description: Inhibition of theophylline-stimulated melanogenesis in mouse B16-4A5 cells at 3 uM after 72 hrs

cells [12] = details: Mus musculus, B16-4A5, 72 h, read-out: INH; remark: listed apart in the source
Description: Inhibition of theophylline-stimulated melanogenesis in mouse B16-4A5 cells at 1 uM after 72 hrs

[13] = Effect on tyrosinase mRNA expression in mouse B16-4A5 cells assessed as tyrosinase mRNA/beta-actin mRNA expression ratio at 3 uM in presence of 1 mM theophylline after 72 hrs by RT-PCR; format: functional
[14] = Effect on tyrosinase mRNA expression in mouse B16-4A5 cells assessed as tyrosinase mRNA/beta-actin mRNA expression ratio at 1 uM in presence of 1 mM theophylline after 72 hrs by RT-PCR; format: functional
[15] = Effect on tyrosinase mRNA expression in mouse B16-4A5 cells assessed as tyrosinase mRNA/beta-actin mRNA expression ratio at 10 uM in presence of 1 mM theophylline after 72 hrs by RT-PCR; format: functional
[16] = Effect on tyrosinase mRNA expression in mouse B16-4A5 cells assessed as tyrosinase mRNA/beta-actin mRNA expression ratio at 30 uM in presence of 1 mM theophylline after 72 hrs by RT-PCR; format: functional
[17] = Effect on TRP1 mRNA expression in mouse B16-4A5 cells assessed as TRP1 mRNA/beta-actin mRNA expression ratio at 1 uM in presence of 1 mM theophylline after 72 hrs by RT-PCR; format: functional
[18] = Effect on TRP1 mRNA expression in mouse B16-4A5 cells assessed as TRP1 mRNA/beta-actin mRNA expression ratio at 3 uM in presence of 1 mM theophylline after 72 hrs by RT-PCR; format: functional
[19] = Effect on TRP1 mRNA expression in mouse B16-4A5 cells assessed as TRP1 mRNA/beta-actin mRNA expression ratio at 10 uM in presence of 1 mM theophylline after 72 hrs by RT-PCR; format: functional
[20] = Effect on TRP1 mRNA expression in mouse B16-4A5 cells assessed as TRP1 mRNA/beta-actin mRNA expression ratio at 30 uM in presence of 1 mM theophylline after 72 hrs by RT-PCR; format: functional
[21] = Effect on TRP2 mRNA expression in mouse B16-4A5 cells assessed as TRP2 mRNA/beta-actin mRNA expression ratio at 1 uM in presence of 1 mM theophylline after 72 hrs by RT-PCR; format: functional
[22] = Effect on TRP2 mRNA expression in mouse B16-4A5 cells assessed as TRP2 mRNA/beta-actin mRNA expression ratio at 3 uM in presence of 1 mM theophylline after 72 hrs by RT-PCR; format: functional
[23] = Effect on TRP2 mRNA expression in mouse B16-4A5 cells assessed as TRP2 mRNA/beta-actin mRNA expression ratio at 10 uM in presence of 1 mM theophylline after 72 hrs by RT-PCR; format: functional
[24] = Effect on TRP2 mRNA expression in mouse B16-4A5 cells assessed as TRP2 mRNA/beta-actin mRNA expression ratio at 30 uM in presence of 1 mM theophylline after 72 hrs by RT-PCR; format: functional
[25] = Inhibition of theophylline-stimulated melanogenesis in mouse B16-4A5 cells at 100 uM after 72 hrs; format: functional; details: B16-4A5, 72 h

SMILES | inhibition at 72 h, 1 µM [1] [%] | inhibition at 72 h, 3 µM [2] [%] | inhibition at 72 h, 10 µM [3] [%] | inhibition at 72 h, 30 µM [4] [%] | IC50 at 72 h [5] [µM] | inhibition [6] [%] | inhibition [7] [%] | inhibition [8] | inhibition at 30 µM (cells [9]) [%] | inhibition at 10 µM (cells [10]) [%] | inhibition at 3 µM (cells [11]) [%] | inhibition at 1 µM (cells [12]) [%] | Ratio [13] | Ratio [14] | Ratio [15] | Ratio [16] | Ratio [17] | Ratio [18] | Ratio [19] | Ratio [20] | also measured
O=c1cc(-c2ccc(O)c(O)c2)oc2cc(O)cc(O)c12 [LUTEOLIN] | -4.8 | -4.9 | 4 | 23.4 | > 100 | 6.4 | 7.1 | inactive | 76.7 | 38.1 | 13.5 | 6.2 | – | – | – | – | – | – | – | – | –
COc1cccc(-c2cc(=O)c3ccccc3o2)c1N | – | – | – | – | – | – | – | – | – | – | – | – | 1.23 | 1.01 | 1.61 | 1.79 | 0.92 | 1.18 | 1.32 | 1.53 | Ratio [21]: 1.12; Ratio [22]: 1.2; Ratio [23]: 1.3; Ratio [24]: 1.69
COc1cc([C@H]2Oc3c(OC)cc(/C=C/CO)cc3[C@@H]2CO)ccc1O | -2.7 | 0.3 | -1.6 | 23.3 | > 100 | – | – | inactive | 72.7 | 18.6 | -5.4 | -1.6 | – | – | – | – | – | – | – | – | –
COc1ccc([C@H]2Oc3c(OC)cc(/C=C/CO)cc3[C@@H]2CO)cc1OC [Hierochin B] | 0.3 | 1.3 | 10.9 | 23.8 | > 100 | – | – | – | 50.6 | 7.6 | 2.2 | -1.6 | – | – | – | – | – | – | – | – | –
COc1cc([C@H]2Oc3c(OC)cc(/C=C/C=O)cc3[C@@H]2CO)ccc1O | 3.8 | 5.5 | 13.6 | 40.3 | > 100 | – | – | inactive | 79.1 | 28.4 | 2.1 | -2.8 | – | – | – | – | – | – | – | – | –
COc1cc([C@@H]2Oc3ccc([C@H]4Oc5cc(O)cc(O)c5C(=O)[C@@H]4O)cc3O[C@H]2CO)ccc1O [ISOSILYBIN B] | – | – | – | < 8.8 | – | 4.2 | 4.8 | inactive | 73.4 | 58 | 37.5 | 18.7 | 1.15 | 0.79 | 1.33 | 0.87 | 1.22 | 1.02 | 1.14 | 1.14 | Ratio [21]: 0.97; Ratio [22]: 0.7; Ratio [23]: 0.74; Ratio [24]: 0.64
O=Cc1ccc(O)c(O)c1 [PROTOCATECHUALDEHYDE] | -4.7 | -4.7 | -3.7 | 11.4 | – | 3.1 | 2.3 | inactive | 57.9 | 40.4 | 13.8 | 8.5 | – | – | – | – | – | – | – | – | –
COc1cc([C@H]2Oc3ccc([C@H]4Oc5cc(O)cc(O)c5C(=O)[C@@H]4O)cc3O[C@@H]2CO)ccc1O [ISOSILYBIN A] | -2.2 | -1.5 | -2.5 | 16 | – | 5.1 | 7 | inactive | 72.1 | 50.2 | 19.8 | 11.7 | 0.97 | 0.73 | 0.85 | 0.56 | 1.11 | 1.26 | 1.12 | 0.6 | Ratio [21]: 0.68; Ratio [22]: 0.63; Ratio [23]: 0.63; Ratio [24]: 0.36
COc1cc(C(O)C(CO)Oc2ccc(/C=C/C=O)cc2OC)ccc1O (stereo not given) | 2.2 | 13.6 | 68.6 | 91.5 | 6.9 | – | – | – | – | < 15.4 | – | – | – | – | – | – | – | – | – | – | –
O=C1C[C@@H](c2ccc(O)c(O)c2)Oc2cc(O)cc(O)c21 [ERIODICTYOL] | – | – | – | < 8.8 | – | – | – | inactive | 46.3 | 32.3 | 10.5 | 6.5 | – | – | – | – | – | – | – | – | inhibition at 100 µM [25]: 70.5%
